A word on the IC50: it is the concentration that inhibits the measured activity by half. Low values mean higher potency, high ones lower potency.

Results on 6 molecules are retold here after patent publication US6372883B1, “Antiviral medicaments” (Hoffmann-La Roche Inc., priority 1998, dated 2002).

The assay concerns the target HCV proteinase (MBP-NS3″Gly 12-NS4A enzyme). The experiment in a line: HCV proteinase inhibition: cleavage of quenched fluorescence substrate NS4A/B.F peptide by MBP-NS3″Gly 12-NS4A enzyme. In kind it is biochemical. The conditions noted are these: 10 μM NS4A/B.F peptide, pH 8.5, 10% DMSO, room temperature for 60 minutes; IC50 by manual graph analysis. An excerpt: As mentioned earlier, the compounds of formula I and salts of acidic compounds of formula I with bases are inhibitors of proteases of viral origin.
Construction of Plasmid for the Expression of MBP-NS3″Gly 12-NS4A Enzyme in E. coli
The nucleotide sequence of this expression plasmid is given in SEQ ID NO:1 appended hereto and the amino acid sequence of its expression product is given in SEQ ID NO:2 appended hereto. It is based on the pMAL®-c2 vector supplied by New England Biolabs, Inc. (32 Tozer Rd., Beverly, Mass., USA). The principle of the construction was to create an in-frame fusion of the maltose binding protein (MBP) gene supplied by the pMAL-c2 vector, and sequences of the HCV genome necessary for NS3 proteinase activity. These HCV sequences were inserted between the EcoRI and HindIII sites of the pMAL-c2 polylinker (positions 2695 and 3556 respectively of the sequence given in SEQ ID NO:1).
HCV sequences were derived from plasmids pDS 3348-4045 and pBFK 3348-6062, described by Bartenschlager et al, 1993 (Journal of Virology, 67, 3835-3844). Regions encompassing the NS3 proteinase domain (amino acids 1007-1219) and the NS4A domain (amino acids 1658-1711) were isolated and inserted into the pMAL-c2 vector using standard recombinant DNA techniques, including the PCR amplification of required sequences. Between the NS3 and NS4A domains, a linker region was constructed using synthetic oligonucleotides (positions 3343-3390; amino acids 606-621). The resulting plasmid was used to transform E. coli (strain MC1061) cells and expression of the MBP-NS3″Gly 12-NS4A enzyme was induced as described below.
Protein Expression and Purification
E. coli (strain MC1061) cells transformed with the foregoing plasmid were grown in Luria broth containing ampicillin (100 μg/ml) at 37° C. The cells were grown until an optical density of 0.5 at 600 nm had been reached and enzyme expression was then induced by adding 1 mM isopropylthiogalactoside and incubating at 37° C. for a further 3 hours. The cells were harvested by centrifugation and stored at −80° C.
A pellet from […] bacterial culture was resuspended in E.coli lysis buffer (20 mM Tris HCl, pH 7.5, containing 150 mM NaCl, 1 mM EDTA and 10 mM dithiothreitol) and cell lysis was achieved by two passages through a French Pressure cell. The clear supernatant obtained by centrifugation (18000 g, 30 minutes) was then applied to an amylose resin column (4×1 cm) (New England Biolabs) which had been equilibrated with ice-cold 50 mM Tris HCl, pH 8.5, containing 200 mM NaCl, 1 mM dithiothreitol and 5% glycerol. The column was washed thoroughly with the equilibration buffer and bound protein was eluted using the equilibration buffer containing 10 mM maltose. Fractions of 1 ml were collected, with fractions containing the enzyme being pooled and stored at −80° C. Enzyme concentration was assayed by the method of M. B. Bradford, Analytical Biochemistry, 1976, vol. 72, p.248.
Compounds of formula I (routinely prepared as stock solutions in DMSO) were assayed for their ability to inhibit the cleavage of a quenched fluorescence substrate [NS4A/B.F peptide (N-[4-[4-(dimethylamino)phenylazo]benzoyl]-L-α-aspartyl-L-(α-glutamyl-L-methionyl-L-α-glutamyl-L-α-glutamyl-L-cysteinyl-L-alanyl-L-seryl-L-histidyl-N5-[2-(5-sulpho-1-naphthylamino)ethyl]-L-glutamin-amide); Wilkinson et al, Society for General Microbiology Meeting, University of Warwick, England, Mar. 28, 1996] based on the NS4A/4B cleavage site by enzyme MBP-NS3{acute over (ii)}Gly 12-NS4A in microtitre plates as follows:
The enzyme (0.4-0.6 μg) was added to a mixture (200 μl final volume) containing 50 mM Tris HCl, pH 8.5, with 1 mM NaCl, 0.1 mM EDTA, 1 mM dithiothreitol, 0.1% Triton X-100, 10 μM NS4A/B.F peptide and the test compound of formula I prepared as a stock solution in DMSO and added to give a 10% final concentration of DMSO. […]
“1(RS)-[[N-[N-[N-[N-[N-(4-Acetamidobutyryl)-L-α-aspartyl-L-α-glutamyl]-2-methyl-L-phenylalanyl]-3-methyl-L-valyl]-L-leucyl]-amino]propylboronic acid” displayed an IC50 of 230 nM.

“2(RS)-[[N-[N-[N-[N2-(N-Acetyl-L-tyrosyl)-N6-nitro-L-arginyl]-2-methyl-L-phenylalanyl]-3-methyl-L-valyl]-L-leucyl]amino]-4,4,4-trifluorobutyraldehyde” registered an IC50 of 44 nM.

As to “2(RS)-[[N-[N-[N-[N-[N-(3-Carboxypropionyl)-L-α-aspartyl-L-α-glutamyl]-2-methyl-L-phenylalanyl]-3-methyl-L-valyl]-O-benzyl-L-tyrosyl]amino]-4,4,4-trifluorobutyraldehyde”, the IC50 came to 200 nM.

On to “2(RS)-[[N-[N-[N-[N-[N-(3-Carboxypropionyl)-L-α-aspartyl-O-benzyl-L-α-glutamyl]-2-methyl-L-phenylalanyl]-3-methyl-L-valyl]-L-leucyl]amino]-4,4,4-trifluorobutyraldehyde”, for which the IC50 was found to be 110 nM.

For “2(RS)-[[N-[N-[N-[N-[N-(9-Hydroxy-9-fluorenyl)carbonyl]-L-seryl]-O-benzyl-D-seryl]-2-methyl-L-phenylalanyl]-3-methyl-L-valyl]-L-leucyl]-amino]-4,4,4-trifluorobutyraldehyde”, the IC50 was 20 nM.

The molecule `Cc1ccccc1C[C@H](NC(=O)[C@H](NC(=O)[C@H](CS)NC(=O)CCC(=O)O)C(C)C)C(=O)N[C@H](C(=O)N[C@@H](CC(C)C)C(=O)NC(C=O)CC(F)(F)F)C(C)(C)C` (mixture of isomers) [D, 2(RS)-[[N-[N-[N-[N-[N-(3-Carboxypropionyl)-L-cysteinyl]-D-valyl]-2-methyl-L-phenylalanyl]-3-methyl-L-valyl]-L-leucyl]amino]-4,4,4-trifluorobutyraldehyde] showed an IC50 of 140 nM. Against the preceding molecule, the IC50 is about 7-fold higher.
